{"source": "patent US12110295B2", "about": "“WD40 repeat domain protein 5 (WDR5) degradation/disruption compounds and methods of use” (Icahn School of Medicine at Mount Sinai, priority 2018, dated 2024)", "key": {"WDR5 [1]": {"biological_target": "T1, WDR5 (Homo sapiens, UniProt P61964)", "assay": "Screening of putative WDR5 degraders by Western blot in MV4;11 and/or MIAPACA2 cells", "format": "cell-based", "design": "After WDR5 degrader treatment, cells were collected and lysed; endogenous in cells; host or cells: MV4;11 and/or MIAPACA2", "settings": "summary of screening, FIGS. 6-10", "method_in_brief": "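MV4;11 (1×10^6/well) or MIAPACA2 (1×10^5/well) cells treated 18 h with compound at paired doses between 0.1 and 10 μM, DMSO as control. Total lysates immunoblotted for WDR5 with vinculin, tubulin or GAPDH loading controls; fluorescent secondary detection.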"}, "WDR5 [2]": {"biological_target": "T1, WDR5", "assay": "Western blot of WDR5 protein levels in MIAPACA2 cells", "format": "cell-based", "design": "After WDR5 degrader treatment, cells were collected and lysed; endogenous in cells; host or cells: MV4;11 and/or MIAPACA2", "settings": "18 h", "experimental": "MIAPACA2 cells were treated with DMSO or indicated compounds at 0.1 μM, 0.5 μM, 1 μM, 5 μM, and 10 μM for 18 hours.\nMIAPACA2 cells were treated with DMSO or indicated compounds at 0.5 μM and 1.0 μM for 18 hours.\nMIAPACA2 cells were treated with DMSO or indicated compounds at 0.1 μM and 0.5 μM for 18 hours.\nMIAPACA2 cells were treated with DMSO or indicated compounds at 0.5 μM and 1.0 μM or at 1.0 μM and 10 μM for 18 hours.\n(§1) MIAPACA2 and Hela cells were cultured in DMEM supplemented with 10% FBS and 1% Penicillin/Streptomycin.\nWDR5 degraders were dissolved in DMSO and DMSO with no degraders was used as the control. 1×10^6 MV4;11 cells or 1×10^5 MIAPACA2 or 2×10^5 Hela cells were seeded in 2 mL medium for each well in […].\nFor prescreening of all the compounds, each test compound was added to the medium at indicated concentrations. After 18 h treatment, cells were collected.\nAfter WDR5 degrader treatment, cells were collected and lysed. Total cell lysates were used for western blot. The following primary antibodies were used: WDR5 (Santa Cruz), vinculin (Cell Signaling Technology), tubulin (Cell Signaling Technology), GAPDH (Santa Cruz). Blots were imaged using fluorescence-labeled secondary antibodies on ChemiDoc™ Imaging Systems."}, "MV4;11 cells": {"tested_on": "MV4;11 cells", "assay": "Cell viability assay (trypan blue, live cell count) in MV4;11 cells", "format": "cell-based", "settings": "0.1, 0.5, 1, 5 and 10 μM, 72 h, FIG. 4", "experimental": "MV4;11 cells were treated with DMSO or the indicated compounds at indicated concentration of 0.1 μM, 0.5 μM, 1 μM, 5 μM, and 10 μM for 72 hours.\nMV4;11 cells were purchased from ATCC and cultured in RPMI 1640 supplemented with 10% FBS and 1% Penicillin/Streptomycin.\n0.5×10^6 MV4;11 cells were seeded in 2 mL medium for each well in 12-well plates. WDR5 degraders in DMSO were added to the medium at indicated concentrations. DMSO was used as the control. Each treatment was done in duplicate wells. After 72 h treatment, 1 part cell suspension from each treatment was mixed with 1 part 0.4% trypan blue respectively. The mixture was allowed to incubate for ˜3 min at room temperature and live cells were counted by automated cell counter."}, "WDR5 [3]": {"biological_target": "T1, WDR5", "settings": "MV4;11 cells, summary of FIGS. 1-3", "description": "MV4;11 cells were treated with DMSO or indicated compounds at 1 μM and 10 μM for 18 hours.\nMV4;11 cells were treated with DMSO or indicated compounds at 0.1 μM, 0.5 μM, 1 μM, 5 μM, and 10 μM for 18 hours.\nMV4;11 cells were treated with DMSO or indicated compounds at a fixed concentration of 0.5 μM for 1, 2, 4, 8, 16, or 24 hours.\nMV4;11 cells were treated with DMSO or indicated compounds at 0.1 μM and 0.5 μM for 18 hours. […] MV4;11 cells were treated with DMSO or indicated compounds at 0.1 μM and 1.0 μM for 18 hours.\nWDR5 degraders were dissolved in DMSO and DMSO with no degraders was used as the control. 1×10^6 MV4;11 cells or 1×10^5 MIAPACA2 or 2×10^5 Hela cells were seeded in 2 mL medium for each well in 24-well plates.\nAnd cells were collected at indicated timepoints: 1 h, 2 h, 4 h, 8 h, 16 h, and 24 h."}, "MIAPACA2 cells": {"tested_on": "MIAPACA2 cells", "assay": "MTT cell proliferation assay in MIAPACA2 cells", "format": "cell-based", "settings": "0.01, 0.03, 0.1, 0.5, 1, 5 and 10 μM, 6 days, FIG. 11", "experimental": "Assessment of the cell proliferation effects of WDR5 degraders XF056-132, XF056-173 and XF067-67 in MIAPACA2 cells (FIG. 11). MIAPACA2 cells were treated with DMSO or indicated compounds at 0.01 μM, 0.03 μM, 0.1 μM, 0.5 μM, 1 μM, 5 μM, and 10 μM for 6 days. MTT assay was used for detecting cell proliferation effects.\nas §1"}}, "note": "Entries after “also recorded” stand apart in the source; their conditions may differ.", "data": [{"smiles": "Cc1ncsc1-c1ccc(CNC(=O)[C@@H]2C[C@@H](O)CN2C(=O)[C@@H](NC(=O)CCCCCCCCCC(=O)NCCN2CCN(Cc3cccc(-c4ccc(N5CCN(C)CC5)c(NC(=O)c5c[nH]c(=O)cc5C(F)(F)F)c4)c3)CC2)C(C)(C)C)cc1", "note": "[XF048-133, N^1-((S)-1-((2S,4R)-4-hydroxy-2-((4-(4-methylthiazol-5-yl)benzyl)carbamoyl)pyrrolidin-1-yl)-3,3-dimethyl-1-oxobutan-2-yl)-N^11-(2-(4-((4′-(4-methylpiperazin-1-yl)-3′-(6-oxo-4-(trifluoromethyl)-1,6-dihydropyridine-3-carboxamido)-[1,1′-biphenyl]-3-yl)methyl)piperazin-1-yl)ethyl)undecanediamide]", "values": [{"measurement": "effective degradation of WDR5 in MV4;11 and/or MIAPACA2 cells", "setting": "WDR5 [1]", "result": "able to effectively degrade WDR5"}, {"measurement": "reduction of WDR5 protein levels, concentration-dependent", "setting": "WDR5 [2]; MIAPACA2 cells, 0.1, 0.5, 1, 5 and 10 μM, FIG. 5", "result": "reduced WDR5 protein levels"}, {"measurement": "viability of MV4;11 cells", "setting": "MV4;11 cells", "result": "reduced the viability of MV4;11 cells much more significantly than the WDR5 inhibitor OICR-9429; also recorded: reduced the viability of MV4;11 cells much more significantly than the WDR5 inhibitor OICR-9419"}, {"measurement": "reduction of WDR5 protein levels in a concentration- and time-dependent manner", "setting": "WDR5 [3]", "result": "effective in reducing WDR5 protein levels"}]}, {"smiles": "CN1CCN(c2ccc(-c3cccc(CN4CCN(CCNC(=O)CCOCCOCCNc5cccc6c5C(=O)N(C5CCC(=O)NC5=O)C6=O)CC4)c3)cc2NC(=O)c2c[nH]c(=O)cc2C(F)(F)F)CC1", "note": "(stereo not drawn) [XF048-142, N-(3′-((4-(2-(3-(2-(2-((2-(2,6-dioxopiperidin-3-yl)-1,3-dioxoisoindolin-4-yl)amino)ethoxy)ethoxy)propanamido)ethyl)piperazin-1-yl)methyl)-4-(4-methylpiperazin-1-yl)-[1,1′-biphenyl]-3-yl)-6-oxo-4-(trifluoromethyl)-1,6-dihydropyridine-3-carboxamide]", "values": [{"measurement": "reduction of WDR5 protein levels in a concentration- and time-dependent manner", "setting": "WDR5 [3]", "result": "effective in reducing WDR5 protein levels"}]}, {"smiles": "CN1CCN(c2ccc(-c3cccc(CN4CCN(CCNC(=O)CCOCCOCCOCCOCCOCCNc5cccc6c5C(=O)N(C5CCC(=O)NC5=O)C6=O)CC4)c3)cc2NC(=O)c2c[nH]c(=O)cc2C(F)(F)F)CC1", "note": "(stereo not drawn) [XF048-145, N-(3′-((4-(1-((2-(2,6-dioxopiperidin-3-yl)-1,3-dioxoisoindolin-4-yl)amino)-18-oxo-3,6,9,12,15-pentaoxa-19-azahenicosan-21-yl)piperazin-1-yl)methyl)-4-(4-methylpiperazin-1-yl)-[1,1′-biphenyl]-3-yl)-6-oxo-4-(trifluoromethyl)-1,6-dihydropyridine-3-carboxamide]", "values": [{"measurement": "reduction of WDR5 protein levels in a concentration- and time-dependent manner", "setting": "WDR5 [3]", "result": "effective in reducing WDR5 protein levels"}]}, {"smiles": "Cc1ncsc1-c1ccc(CNC(=O)[C@@H]2C[C@@H](O)CN2C(=O)[C@@H](NC(=O)CNC(=O)c2ccc(F)c(-c3ccc(N4C[C@@H](C)N(C)[C@@H](C)C4)c(NC(=O)c4c[nH]c(=O)cc4C(F)(F)F)c3)c2)C(C)(C)C)cc1", "note": "[XF056-132, N-(2′-fluoro-5′-((2-(((S)-1-((2S,4R)-4-hydroxy-2-((4-(4-methylthiazol-5-yl)benzyl)carbamoyl)pyrrolidin-1-yl)-3,3-dimethyl-1-oxobutan-2-yl)amino)-2-oxoethyl)carbamoyl)-4-((3R,5S)-3,4,5-trimethylpiperazin-1-yl)-[1,1′-biphenyl]-3-yl)-6-oxo-4-(trifluoromethyl)-1,6-dihydropyridine-3-carboxamide]", "values": [{"measurement": "effective degradation of WDR5 in MV4;11 and/or MIAPACA2 cells", "setting": "WDR5 [1]", "result": "able to effectively degrade WDR5"}, {"measurement": "degradation of WDR5", "setting": "WDR5 [2]; MIAPACA2 cells, 0.1 μM and 0.5 μM, FIG. 8A-8C", "result": "can effectively degrade WDR5 at 0.1 μM and 0.5 μM"}, {"measurement": "proliferation of MIAPACA2 cells", "setting": "MIAPACA2 cells", "result": "significantly decreased the cell proliferation; also recorded: significantly reduced the proliferation of MIAPACA2 cells"}]}]}
